Laboratory results from paper PMC9005681, “Use of AD Informer Set compounds to explore validity of novel targets in Alzheimer's disease pathology” (Alzheimer's & Dementia : Translational Research & Clinical …, 2022).
Several values for one entry are separate records, joined by “and”; a condition that tells them apart may be missing. Identical values can stand only once.

How the values were obtained:
Test in all cases: PDSP GPCR panel primary binding assays at 10 μM
[1] = target: T1, cloned human or rodent CNS receptors, channels, and transporters (PDSP panel) (Rattus norvegicus, UniProt P16257); details: PBR, primary assay; for Mean %: mean inhibition; for Inhibition 1: replicate 1; for Inhibition 2: replicate 2; for Inhibition 3: replicate 3; for Inhibition 4: replicate 4
T1 construct: expressed in transfected cells
In short: (§1)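 Secondary binding curves (11 points, triplicate) were run at targets where the 10 μM primary screen, done in quadruplicate, displaced over 50% of radio-labelled standard ligand on average. Primary screening covered 46–47 cloned human or rodent CNS targets; H3, PBR and GABAA were not followed up.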

[2] = target: T2, cloned human or rodent CNS receptors, channels, and transporters (PDSP panel) (Homo sapiens, UniProt P31645); details: SERT, primary assay; for Inhibition 1: replicate 1; for Inhibition 2: replicate 2; for Inhibition 3: replicate 3; for Inhibition 4: replicate 4
T2 construct: expressed in transfected cells
In short: as §1

[3] = target: T3, cloned human or rodent CNS receptors, channels, and transporters (PDSP panel) (Homo sapiens, UniProt P35367); details: H1, primary assay; for Mean %: mean inhibition; for Inhibition 1: replicate 1; for Inhibition 2: replicate 2; for Inhibition 3: replicate 3; for Inhibition 4: replicate 4
T3 construct: expressed in transfected cells
In short: as §1

[4] = target: T4, cloned human or rodent CNS receptors, channels, and transporters (PDSP panel) (Homo sapiens, UniProt P21917); details: D4, primary assay; for Mean %: mean inhibition; for Inhibition 1: replicate 1; for Inhibition 2: replicate 2; for Inhibition 3: replicate 3; for Inhibition 4: replicate 4
T4 construct: expressed in transfected cells
T4 sequence (P21917 1-419): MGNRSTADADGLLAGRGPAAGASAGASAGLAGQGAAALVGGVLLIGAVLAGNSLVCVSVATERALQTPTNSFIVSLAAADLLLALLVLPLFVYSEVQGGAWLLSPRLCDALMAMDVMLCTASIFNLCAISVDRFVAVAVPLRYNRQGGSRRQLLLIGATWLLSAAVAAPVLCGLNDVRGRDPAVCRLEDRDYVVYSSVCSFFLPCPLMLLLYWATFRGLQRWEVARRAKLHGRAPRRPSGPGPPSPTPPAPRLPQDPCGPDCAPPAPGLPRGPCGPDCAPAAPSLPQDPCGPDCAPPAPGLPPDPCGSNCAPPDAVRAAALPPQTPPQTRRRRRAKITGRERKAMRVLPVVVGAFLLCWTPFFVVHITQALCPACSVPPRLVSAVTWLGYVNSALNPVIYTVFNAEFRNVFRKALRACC
In short: as §1

[5] = target: T5, cloned human or rodent CNS receptors, channels, and transporters (PDSP panel) (Homo sapiens, UniProt P08912); details: M5, primary assay; for Mean %: mean inhibition; for Inhibition 1: replicate 1; for Inhibition 2: replicate 2; for Inhibition 3: replicate 3; for Inhibition 4: replicate 4
T5 construct: expressed in transfected cells
T5 sequence (P08912 1-532): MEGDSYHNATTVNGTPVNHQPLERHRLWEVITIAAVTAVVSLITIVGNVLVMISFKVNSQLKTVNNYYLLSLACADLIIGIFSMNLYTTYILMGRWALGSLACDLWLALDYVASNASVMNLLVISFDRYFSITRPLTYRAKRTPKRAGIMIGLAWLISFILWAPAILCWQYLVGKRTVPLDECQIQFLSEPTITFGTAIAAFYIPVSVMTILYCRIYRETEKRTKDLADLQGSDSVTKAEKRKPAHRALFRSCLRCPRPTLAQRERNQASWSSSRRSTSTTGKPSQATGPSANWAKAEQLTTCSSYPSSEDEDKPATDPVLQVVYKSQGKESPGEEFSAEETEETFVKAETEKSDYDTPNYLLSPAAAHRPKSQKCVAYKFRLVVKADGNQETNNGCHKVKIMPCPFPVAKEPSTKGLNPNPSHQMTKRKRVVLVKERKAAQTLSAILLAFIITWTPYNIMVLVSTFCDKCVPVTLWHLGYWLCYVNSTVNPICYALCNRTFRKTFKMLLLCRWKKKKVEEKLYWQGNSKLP
In short: as §1

[6] = target: T6, cloned human or rodent CNS receptors, channels, and transporters (PDSP panel) (Homo sapiens, UniProt P08908); details: 5-HT1A, primary assay; for Mean %: mean inhibition; for Inhibition 1: replicate 1; for Inhibition 2: replicate 2; for Inhibition 3: replicate 3; for Inhibition 4: replicate 4
T6 construct: expressed in transfected cells
T6 sequence (P08908 1-422): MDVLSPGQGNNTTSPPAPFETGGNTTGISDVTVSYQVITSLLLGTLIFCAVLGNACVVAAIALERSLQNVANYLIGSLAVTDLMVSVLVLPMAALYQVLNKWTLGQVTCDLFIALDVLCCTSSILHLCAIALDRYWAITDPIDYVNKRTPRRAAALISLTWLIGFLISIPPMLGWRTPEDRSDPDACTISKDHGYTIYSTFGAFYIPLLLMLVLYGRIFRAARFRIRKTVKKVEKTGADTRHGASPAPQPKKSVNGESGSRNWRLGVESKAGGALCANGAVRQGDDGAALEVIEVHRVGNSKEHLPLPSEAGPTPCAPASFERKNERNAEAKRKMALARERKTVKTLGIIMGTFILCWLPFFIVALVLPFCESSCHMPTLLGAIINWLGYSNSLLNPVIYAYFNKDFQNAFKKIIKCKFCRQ
In short: as §1

[7] = target: T7, cloned human or rodent CNS receptors, channels, and transporters (PDSP panel) (Homo sapiens, UniProt P41145); details: KOR, primary assay; for Mean %: mean inhibition; for Inhibition 1: replicate 1; for Inhibition 2: replicate 2; for Inhibition 3: replicate 3; for Inhibition 4: replicate 4
T7 construct: expressed in transfected cells
In short: as §1

[8] = target: T8, cloned human or rodent CNS receptors, channels, and transporters (PDSP panel) (Homo sapiens, UniProt P28223); details: 5-HT2A, primary assay; for Mean %: mean inhibition; for Inhibition 1: replicate 1; for Inhibition 2: replicate 2; for Inhibition 3: replicate 3; for Inhibition 4: replicate 4
T8 construct: expressed in transfected cells
In short: as §1

[9] = target: T9, cloned human or rodent CNS receptors, channels, and transporters (PDSP panel) (Homo sapiens, UniProt P28222); details: 5-HT1B, primary assay; for Mean %: mean inhibition; for Inhibition 1: replicate 1; for Inhibition 2: replicate 2; for Inhibition 3: replicate 3; for Inhibition 4: replicate 4
T9 construct: expressed in transfected cells
In short: as §1

T2 sequence (P31645 whole entry): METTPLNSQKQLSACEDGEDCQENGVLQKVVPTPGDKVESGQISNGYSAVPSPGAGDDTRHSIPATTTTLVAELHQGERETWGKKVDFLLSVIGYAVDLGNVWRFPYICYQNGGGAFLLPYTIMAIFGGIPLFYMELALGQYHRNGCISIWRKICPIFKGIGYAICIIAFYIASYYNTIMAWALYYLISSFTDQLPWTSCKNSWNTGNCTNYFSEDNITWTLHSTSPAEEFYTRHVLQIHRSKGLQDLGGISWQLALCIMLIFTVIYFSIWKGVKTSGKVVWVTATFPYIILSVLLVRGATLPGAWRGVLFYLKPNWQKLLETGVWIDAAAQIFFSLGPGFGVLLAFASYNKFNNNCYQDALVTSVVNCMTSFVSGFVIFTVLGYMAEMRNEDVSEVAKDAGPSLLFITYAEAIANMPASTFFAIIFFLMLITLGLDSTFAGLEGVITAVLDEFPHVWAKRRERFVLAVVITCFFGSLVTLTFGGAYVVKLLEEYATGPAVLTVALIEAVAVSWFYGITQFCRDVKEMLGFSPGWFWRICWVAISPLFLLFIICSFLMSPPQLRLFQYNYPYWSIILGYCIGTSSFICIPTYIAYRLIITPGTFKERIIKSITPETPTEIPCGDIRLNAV
T3 sequence (P35367 whole entry): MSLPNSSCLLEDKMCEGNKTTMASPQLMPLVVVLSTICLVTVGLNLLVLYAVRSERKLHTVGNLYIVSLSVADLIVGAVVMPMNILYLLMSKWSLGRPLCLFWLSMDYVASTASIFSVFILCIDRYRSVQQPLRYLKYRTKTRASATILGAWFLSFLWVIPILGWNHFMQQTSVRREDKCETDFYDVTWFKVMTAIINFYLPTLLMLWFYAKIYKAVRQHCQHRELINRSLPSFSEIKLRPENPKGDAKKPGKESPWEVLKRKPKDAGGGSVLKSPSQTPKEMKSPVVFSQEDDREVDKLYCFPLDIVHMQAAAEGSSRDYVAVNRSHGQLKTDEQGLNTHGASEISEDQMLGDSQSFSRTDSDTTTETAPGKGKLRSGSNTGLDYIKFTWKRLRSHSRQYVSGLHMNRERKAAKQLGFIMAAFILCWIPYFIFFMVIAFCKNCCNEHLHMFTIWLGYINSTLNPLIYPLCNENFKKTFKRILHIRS
T8 sequence (P28223 whole entry): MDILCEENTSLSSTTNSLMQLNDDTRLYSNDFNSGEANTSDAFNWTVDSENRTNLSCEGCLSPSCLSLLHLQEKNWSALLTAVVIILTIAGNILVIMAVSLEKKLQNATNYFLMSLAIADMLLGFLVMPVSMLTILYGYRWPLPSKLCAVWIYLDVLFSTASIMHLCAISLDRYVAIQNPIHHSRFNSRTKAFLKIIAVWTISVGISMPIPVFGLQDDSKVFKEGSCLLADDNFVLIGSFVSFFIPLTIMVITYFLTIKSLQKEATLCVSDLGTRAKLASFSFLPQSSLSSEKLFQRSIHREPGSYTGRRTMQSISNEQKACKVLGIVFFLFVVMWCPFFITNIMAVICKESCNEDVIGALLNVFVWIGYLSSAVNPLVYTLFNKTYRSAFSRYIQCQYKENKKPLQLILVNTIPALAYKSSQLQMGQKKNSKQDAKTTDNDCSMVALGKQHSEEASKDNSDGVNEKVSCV
T9 sequence (P28222 whole entry): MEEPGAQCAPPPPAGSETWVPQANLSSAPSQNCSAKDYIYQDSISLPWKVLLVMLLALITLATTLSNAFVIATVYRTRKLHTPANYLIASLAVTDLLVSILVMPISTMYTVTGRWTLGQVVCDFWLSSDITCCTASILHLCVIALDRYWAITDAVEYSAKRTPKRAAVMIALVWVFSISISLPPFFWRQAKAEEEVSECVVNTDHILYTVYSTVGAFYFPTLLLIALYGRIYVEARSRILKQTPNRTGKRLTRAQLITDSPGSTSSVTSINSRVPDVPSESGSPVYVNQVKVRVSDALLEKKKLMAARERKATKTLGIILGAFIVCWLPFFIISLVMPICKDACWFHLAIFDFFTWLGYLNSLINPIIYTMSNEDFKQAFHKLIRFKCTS
T7 sequence (P41145 whole entry): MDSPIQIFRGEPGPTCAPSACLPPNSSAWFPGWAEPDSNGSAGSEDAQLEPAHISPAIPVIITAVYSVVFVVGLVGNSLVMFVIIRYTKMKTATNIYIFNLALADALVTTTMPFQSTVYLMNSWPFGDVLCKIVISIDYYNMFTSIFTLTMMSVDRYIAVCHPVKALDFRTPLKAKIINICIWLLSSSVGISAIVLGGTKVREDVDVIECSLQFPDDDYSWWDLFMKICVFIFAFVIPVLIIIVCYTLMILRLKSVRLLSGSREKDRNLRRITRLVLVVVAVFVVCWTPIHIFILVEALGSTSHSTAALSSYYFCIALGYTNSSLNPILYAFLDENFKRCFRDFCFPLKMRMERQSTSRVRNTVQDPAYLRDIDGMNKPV

## CCC(=O)N1CCC(NC(=O)Nc2ccc(OC(F)(F)F)cc2)CC1 [UNC10302681A, TPPU]
[1]
  Mean %: 4.31% and 5.42%
  Inhibition 1: 20.73% and 18.86%
  Inhibition 2: -4.07% and -6.82%
  Inhibition 3: -2.57% and 2.75%
  Inhibition 4: 3.14% and 6.9%
[2]
  Inhibition 1: 16.43% and 21.37%
  Inhibition 2: -9.69% and 21.48%
  Inhibition 3: 7.05% and 21.19%
  Inhibition 4: 4.97% and 21.78%
[3]
  Mean %: 74.57%
  Inhibition 1: 97.51%
  Inhibition 2: 87.07%
  Inhibition 3: 65.55%
  Inhibition 4: 48.14%
[4]
  Mean %: 5.93%
  Inhibition 1: 5.07%
  Inhibition 2: 3.44%
  Inhibition 3: 0%
  Inhibition 4: 15.2%
[5]
  Mean %: -2.23%
  Inhibition 1: 18.08%
  Inhibition 2: -1.14%
  Inhibition 3: -10.91%
  Inhibition 4: -14.93%
[6]
  Mean %: 6.94%
  Inhibition 1: 9.39%
  Inhibition 2: 25.6%
  Inhibition 3: 0.78%
  Inhibition 4: -8.02%
[7]
  Mean %: -14.38%
  Inhibition 1: -11.64%
  Inhibition 2: -17.46%
  Inhibition 3: -11.75%
  Inhibition 4: -16.68%
[8]
  Mean %: -2.37%
  Inhibition 1: 0.31%
  Inhibition 2: -4.96%
  Inhibition 3: -8.74%
  Inhibition 4: 3.92%
[9]
  Mean %: -0.64%
  Inhibition 1: 7.08%
  Inhibition 2: 0.59%
  Inhibition 3: -3.14%
  Inhibition 4: -7.08%

## CNc1nc(C)nc(N[C@H]2CCC[C@@H](C(=O)NCc3ccc(C#N)cc3C(F)(F)F)C2)n1 [UNC10302679A, GSK2256294A]
[1]
  Mean %: 61.99% and 50.52%
  Inhibition 1: 64.51% and 57.62%
  Inhibition 2: 61.79% and 51.24%
  Inhibition 3: 61.7% and 45.98%
  Inhibition 4: 59.94% and 47.25%
[2]; mean inhibition
  Mean %: 7.19% and 15.11%
[2]
  Inhibition 1: 10.02% and 22.3%
  Inhibition 2: -5.87% and 16.69%
  Inhibition 3: 7.61% and 10.49%
  Inhibition 4: 16.99% and 10.96%
[3]
  Mean %: 71.69%
  Inhibition 1: 93.05%
  Inhibition 2: 75.46%
  Inhibition 3: 68.14%
  Inhibition 4: 50.11%
[4]
  Mean %: 2.7%
  Inhibition 1: 2.1%
  Inhibition 2: -2.96%
  Inhibition 3: 3.54%
  Inhibition 4: 8.13%
[5]
  Mean %: -6.81%
  Inhibition 1: 1.27%
  Inhibition 2: -10.6%
  Inhibition 3: -10.81%
  Inhibition 4: -7.08%
[6]
  Mean %: 4.14%
  Inhibition 1: 11.98%
  Inhibition 2: 4.74%
  Inhibition 3: -9.57%
  Inhibition 4: 9.39%
[7]
  Mean %: -10.86%
  Inhibition 1: -18.36%
  Inhibition 2: -17.69%
  Inhibition 3: 0.34%
  Inhibition 4: -7.72%
[8]
  Mean %: -5.29%
  Inhibition 1: 5.24%
  Inhibition 2: -8.74%
  Inhibition 3: -13.01%
  Inhibition 4: -4.63%
[9]
  Mean %: -2.56%
  Inhibition 1: 6.88%
  Inhibition 2: -14.35%
  Inhibition 3: 0.2%
  Inhibition 4: -2.95%
